Measured values as given in patent publication US20080233080A1, “Inulins, Levans, Fructans And Other Smaller-Than-Cellulose Termite Feeding Attractants, And Termite” (priority 2004, published 2008).
“And” between values parts separate entries of the source, which are not always exact repeats. Equal entries are not always repeated. “Also recorded” adds a separate entry of the source.

Assays:
[1] = system: eastern subterranean termites; conditions: in vivo; cited from earlier work
Reticulitermes spp. [2] = assay: Diet consumption by groups of termites in no-choice and choice bioassay arenas; assay type: in vivo
Method: Subterranean Termite Collection. Five wild populations of Reticulitermes spp. were collected from fallen wood in forested areas of Fairfax County (N38° 43.29′ and W77° 30.93′), Montgomery County (N37° 12.46′ and W80° 24.47′), Rockbridge County (N37° 48.00′ and W 79° 25.00′), and Roanoke County (N37° 19.53′ and W79° 58.53′), Virginia. Termites were harvested by placing the infested wood into large storage bins (70 L; Sterlite®; Sterlite Corporation, Townsend, Mass.) on top of damp, recycled paper towels (Acclaim®; Fort James Corporation, Deerfield, Ill.). As the wood dried out the termites moved into the moist paper towels. The infested paper towels were then transferred to plastic storage containers (11.3 L; Rubbermaid, Wooster, Ohio) containing vermiculite (500 g; moistened 150% by weight (Lenz M., T. L. Amburgey, D. Zi-Rong, H. Kuhne, J. K. Mauldin, A. F. Preston, and M. Westcott, 1987, Interlaboratory studies on termite-wood decay fungi associations: I. Determination of maintenance conditions for several species of termites (Isoptera: Mastotermitidae, Termopsidae, Rhinotermitidae), Sociobiology, 13:1-56; Cherokee Vermiculite Horticultural Fine Cherokee Products, Jefferson City, Tenn.). Subterannean termite containers were stored in complete darkness (˜21° C. and 97% RH) until needed for testing. Subterranean termites were tested within one month after being collected from the field.
Termite Diet Preparation. Recycled brown paper toweling (Acclaim®) was cut into squares (35×35 mm) and used as a diet substrate. The diet substrates were placed into glass Pyrex Petri dishes (100×20 mm; Corning Glass Works, Corning, N.Y.) and dried overnight in a single wall, gravity convection, laboratory oven (60° C.; Blue M SW-17TA; Blue M Electric Company; Blue Island, Ill.). After 24 hours, each diet substrate was taken out of the oven, numbered in the corner with a pencil and weighed on a balance (Mettler AE163; Lab Tech, Inc.) to the nearest 0.1 mg. After weighing, certain diets were treated with radiochemicals. Because hexaflumuron cannot be stored at temperatures greater than 50° C., radioisotopes were only applied after the diets were oven dried. The weight of the isotopes on the diet after air drying was determined to be negligible.
Control Diets. Control diets were treated with the visual marker only. The visual marker was formulated by dissolving Nile Blue-A in acetone and applying a 150 μl aliquot of dye solution to each diet substrate. The final Nile Blue-A concentration on the diet was 0.1%.
^14C-hexaflumuron Diets. A stock solution of technical grade hexaflumuron, ^14C-hexaflumuron (0.5% total hexaflumuron concentration) and 0.1% Nile Blue-A was formulated in acetone. An aliquot (150 μl) of the solution was applied to each diet substrate so that each diet contained 0.27 μCi of the ^14C-hexaflumuron.
^3H-inulin Diets. A stock solution of the ^3H-inulin and 0.1% Nile Blue-A (1.95 mg) was formulated in acetone. An aliquot (150 μl) of the solution was applied to each diet substrate so that each diet contained […] of the ^3H-inulin. ^3H has a lower energy spectrum than ^14C, so ˜8× more ^3H-inulin was added to the diets than ^14C-hexaflumuron to facilitate radioisotope quantification process after termite consumption.
Bioassay Arenas: Consumption bioassays were performed in choice and non-choice bioassay arenas. Arena tests were used to evaluate termite consumption of hexaflumuron treated bait alone and in the presence of a competing food source.
No-Choice Bioassay. No-choice bioassay arenas were assembled by connecting two Petri dishes with Tygon tubing (inner diameter 3.2 mm, outer diameter 6.4 mm). Petri dishes were washed 4 times in tap water to eliminate static electricity. Tygon tubing was soaked in tap water for 3 hours and allowed to air dry prior to use. One Petri dish (95 mm×15 mm; Fisher Scientific) served as a termite housing chamber and was filled with moist sand (˜45 g). […]

subterranean termites = subterranean termites fed hexaflumuron bait; cited from earlier work
Reticulitermes spp. [3] = assay: Diet consumption by individual termites, radioisotope quantification by scintillation counting; assay type: in vivo; conditions: for feeding preference of individual termites: choice test 14C-hexaflumuron and 3H-inulin
Method: Diet Consumption by Individual Termites. After mortality was recorded for a particular treatment/day, 20 surviving termites were randomly selected from each radioactive treatment arena for isotope analysis. Random selection was not limited to dyed termites. Non-dyed termites were also selected. The termites were thoroughly rinsed with distilled water three times to remove any radioactivity from the outside of the body. They were next placed on paper towels to remove excess water. Each rinsed, dried termite was placed into a separate microcentrifuge tube (1.5 ml; Fisher Brand), and the body was homogenized in 200 μl of distilled water. The homogenate was transferred into a glass scintillation vial (20 ml; Kimble Glass, Vineland, N.J.). Microcentrifuge tubes were rinsed three times with 200 μl of distilled water per rinse. Each rinse was added to the homogenate in the scintillation vial. An aliquot of scintillation cocktail (8 ml; Scintiverse® BD; Fisher Scientific, Fair Lawn, N.J.) was then added to each vial.
The amount of radioactivity contained within each sample was quantified by using a scintillation counter (Beckman Coulter, Inc.™ LS 6500, Fullerton, Calif.). The individual termite samples contained very low dpm counts. Therefore, sample vials containing only a single isotope (from no-choice tests) were counted for 10 minutes. However, sample vials that potentially could contain dual isotopes (from choice-tests) were counted for 20 minutes to improve the accuracy of the counts.
Background Radioactivity Measurements. After termite mortality had been recorded, 2 termites were selected at random from each no-choice, control arena. These termites were rinsed, homogenized, and prepared for scintillation counting as previously described. Control termites were counted in the scintillation counter for 10 minutes to record background radioactivity. Background radioactivity was measured for each treatment group (choice and no-choice) at both 2 d and 5 d. Background measurements also accounted for any quenching that occurred due to the termite body fragments occluding light transmission in the scintillation counter. Before the test data was analyzed, background radioactivity counts for a particular sample was subtracted from the sample's spectral peak (Traniello, J. F. A., R. B. Rosengaus and C. K. Levy, 1985, Single and double isotope labeling of social insect colonies, Entomol. Exp. Appl., 38:87-92; Suarez, M. E. and B. L. Thorne, 2000, Effects of food type and foraging distance on trophallaxis in the subterranean termite Reticulitermes virginicus (Isoptera: Rhinotermitidae), Sociobiology, 35: 487-498).
Radiolabel Counting using Dual Label Technique. Specialized procedures were required for analysis of radiolabeled samples containing both ^14C and ^3H. Due to the potential low/high counts and spillover of ^14C and ^3H in the counting window, a series of dilutions was made from extracted diets (with known amounts of activity) to correct for spillover. The range of activity values for ^14C and ^3H and a combination of the two isotopes within the samples was determined. Spillover correction curves were generated for the range of sample data and used to correct those samples where high levels of both ^14C and ^3H occurred and spillover was evident.
Quantification of radioactive isotopes from individual termite cadavers was used to determine how much a single termite consumed of ^14C-hexaflumuron diet in the presence of a competing food source. Mean consumption of ^14C-hexaflumuron diet in the no-choice test was compare with ^14C-hexaflumuron consumption in the choice test using GLM ANOVA with Least Squares adjustment for multiple comparisons of mean values. For all tests data was analyzed separately for 2 d and 5 d.
Finally, mean consumption of the two radioisotopes, ^14C-hexaflumuron and ^3H-inulin, in the choice tests were compared to determine whether termites preferred one diet over another. […]

Reticulitermes sp. = assay: Inulin treated vs untreated paper towel diets placed on yellow pine termite harborages; assay type: in vivo; conditions: average of 7 d
Method: Subterranean termites, Reticulitermes sp. were reared in the laboratory in Nunc dishes containing strips of yellow pine wood as a food resource and termite harborage. Inulin treated and untreated paper towel diets were weighed and then placed side by side on the top of the termite harborages (strips of yellow pine). Termites were allowed to forage for an average of 7 d. After the test period, the diets were removed, weighed and consumption of each towel diet was recorded as a percentage of total consumption of both paper towel diets.

[4] = choice test hexaflumuron and inulin diets, 2 d
[5] = choice test hexaflumuron and inulin diets, 5 d
[6] = choice test 14C-hexaflumuron and 3H-inulin diets, 5 d
[7] = choice test hexaflumuron and inulin diets, 5 d, listed as inulin

O=C(NC(=O)c1c(F)cccc1F)Nc1cc(Cl)c(OC(F)(F)C(F)F)c(Cl)c1 [Hexaflumuron, N-(((3,5-dichloro-4-(1,1,2,2-tetrafluoroethoxy)phenyl)-amino)carbonyl)-2,6-difluorobenzamide]
mean half life within the body of a termite [1]: ~220 h | Hexaflumuron Consumption (mg) (Mean ± SEM) (Reticulitermes spp. [2]; choice test hexaflumuron and control diet, 2 d): 1.6 ± 0.9a mg | Hexaflumuron Consumption (mg) (Mean ± SEM) (Reticulitermes spp. [2]; choice test hexaflumuron and control diet, 2 d, listed as hexaflumuron): 1.6 mg | Hexaflumuron Consumption (mg) (Mean ± SEM) (Reticulitermes spp. [2]; choice test hexaflumuron and control diet, 5 d): 3.2 ± 1.4a mg | Hexaflumuron Consumption (mg) (Mean ± SEM) (Reticulitermes spp. [2]; choice test hexaflumuron and control diet, 5 d, listed as hexaflumuron): 3.2 mg | Consumption (mg) (Mean ± SEM) (Reticulitermes spp. [2]; [4]): 1.0 ± 0.8a mg | Consumption (mg) (Mean ± SEM) (Reticulitermes spp. [2]; choice test hexaflumuron and inulin diets, 2 d, listed as hexaflumuron): 1.0 mg | Consumption (mg) (Mean ± SEM) (Reticulitermes spp. [2]; [5]): 0.2 ± 0.1b mg and 0.2 ± 0.1 a mg | Consumption (mg) (Mean ± SEM) (Reticulitermes spp. [2]; choice test hexaflumuron and inulin diets, 5 d, listed as 14C-hexaflumuron): 0.2 mg | Consumption (mg) (Mean ± SEM) (Reticulitermes spp. [2]; choice test hexaflumuron and inulin diets, 5 d, listed as hexaflumuron): 0.2 mg | Hexaflumuron Consumption (mg) (Mean ± SEM) (Reticulitermes spp. [2]; no-choice test, 2 d, groups of 100 termite workers, 0.5% hexaflumuron diet): 3.0 ± 0.7a mg | Hexaflumuron Consumption (mg) (Mean ± SEM) (Reticulitermes spp. [2]; no-choice test, 2 d, groups of 100 termite workers, 0.5% hexaflumuron diet, listed as 14C-hexaflumuron): 3 mg | Hexaflumuron Consumption (mg) (Mean ± SEM) (Reticulitermes spp. [2]; no-choice test, 2 d, groups of 100 termite workers, 0.5% hexaflumuron diet, listed as hexaflumuron): 3.0 mg | Hexaflumuron Consumption (mg) (Mean ± SEM) (Reticulitermes spp. [2]; no-choice test, 5 d, groups of 100 termite workers, 0.5% hexaflumuron diet): 11.4 ± 3.9a mg | Hexaflumuron Consumption (mg) (Mean ± SEM) (Reticulitermes spp. [2]; no-choice test, 5 d, groups of 100 termite workers, 0.5% hexaflumuron diet, listed as 14C-hexaflumuron): 11.4 mg | Hexaflumuron Consumption (mg) (Mean ± SEM) (Reticulitermes spp. [2]; no-choice test, 5 d, groups of 100 termite workers, 0.5% hexaflumuron diet, listed as hexaflumuron): 11.4 mg | LT50 (subterranean termites): ~26.6 days | onset of toxicity (subterranean termites): approximately 15 d | consumption by an individual termite (Reticulitermes spp. [3]; choice test 14C-hexaflumuron and 3H-inulin diets, 2 d): 7.3 µg | consumption by an individual termite (Reticulitermes spp. [3]; [6]): 2.3 µg | feeding preference of individual termites (Reticulitermes spp. [3]; 2 d): did not prefer either diet | consumption by an individual termite (Reticulitermes spp. [3]; choice test competing with control diet, 2 d): 14.5 µg | consumption by an individual termite (Reticulitermes spp. [3]; choice test in presence of control diet, 5 d): 19.3 µg | consumption by an individual termite (Reticulitermes spp. [3]; no-choice test, 2 d): 38.9 µg | consumption by an individual termite (Reticulitermes spp. [3]; no-choice test, 5 d): 56.9 µg

inulin
preferential consumption versus untreated towels and yellow pine wood (Reticulitermes sp.): preferentially consumed inulin treated paper towels over untreated towels and yellow pine wood | Termite Consumption Mean % ± SEM (percentage of total consumption of both paper towel diets) (Reticulitermes sp.; choice, in presence of yellow pine): 64.7 ± 4.5% | Consumption (mg) (Mean ± SEM) (Reticulitermes spp. [2]; [4]): 2.0 ± 0.6 mg | Consumption (mg) (Mean ± SEM) (Reticulitermes spp. [2]; [5]): 6.0 ± 1.3 mg and 6.0 ± 1.3 b mg | Consumption (mg) (Mean ± SEM) (Reticulitermes spp. [2]; [7]): 6.0 mg | feeding preference of termite populations (consumption significantly greater than 50% of total) (Reticulitermes spp. [2]; [7]): preference for the inulin diet was indicated; also recorded: preference for the inulin treated bait | consumption of inulin treated bait relative to Hexaflumuron treated bait (Reticulitermes spp. [2]; choice test, 5 d, Table B): 30 times | consumption by an individual termite (Reticulitermes spp. [3]; [6]): 19.4 µg | feeding preference of individual termites (Reticulitermes spp. [3]; 2 d): did not prefer either diet | feeding preference of individual termites (Reticulitermes spp. [3]; 5 d, listed as 3H-inulin): significant preference | feeding preference of individual termites (Reticulitermes spp. [3]; 5 d, listed as inulin): significant preference for the inulin treated bait
